Reference: PubChem BioAssay AID1745844 (Carcinogenic Potency Database (CPDB), 2022)
Activity calls are given as the source filed them. No rule for the calls is given here.

Test system: rodent lifetime carcinogenesis bioassay, tumor incidence TD50
Test: carcinogenic potency in animals, long-term in vivo studies, CPDB compilation (AID 1745844)

## CCO
hamster, strain Syrian Golden, males, in drinking water, site: trachea, lesion: one or several types, types not named, dosed 29 weeks, study length 78 weeks
  carcinogen call: negative (inactive)
mouse, strain A, males, in drinking water, site: liver, lesion: hepatocellular adenoma, dosed 72 weeks, study length 72 weeks
  TD50: 127000 mg/kg/day
mouse, strain BALB/c, males, in drinking water, site: forestomach, lesion: squamous-cell papilloma, dosed 69 weeks, study length 86 weeks
  carcinogen call: negative (inactive)
mouse, strain Swiss, females, in drinking water, site: any site (literature study), lesion: several types, types named in the paper, dosed 69 weeks, study length 86 weeks
  TD50: 21400 mg/kg/day (inactive)
mouse, strain Swiss, females, in drinking water, site: forestomach, lesion: squamous-cell papilloma, dosed 69 weeks, study length 86 weeks
  TD50: 10900 mg/kg/day (inactive)
mouse, strain Swiss, males, in drinking water, site: lung, lesion: adenoma, dosed 69 weeks, study length 86 weeks
  carcinogen call: negative (inactive)
rat, strain ACI, males, in drinking water, site: forestomach, lesion: papilloma, dosed 52 weeks, study length 52 weeks
  TD50: 4980 mg/kg/day
rat, strain Charles River CD (Sprague-Dawley), females, in drinking water, site: any site (literature study), lesion: one or several types, types not named, dosed 104 weeks, study length 104 weeks
  carcinogen call: negative (inactive)
rat, strain Charles River CD (Sprague-Dawley), females, in drinking water, site: liver, lesion: neoplastic nodule, dosed 104 weeks, study length 104 weeks
  carcinogen call: negative (inactive)
rat, strain Charles River CD (Sprague-Dawley), males, in drinking water, site: any site (literature study), lesion: one or several types, types not named, dosed 104 weeks, study length 104 weeks
  carcinogen call: negative (inactive)
rat, strain Charles River CD (Sprague-Dawley), males, in drinking water, site: liver, lesion: hepatocellular carcinoma, dosed 104 weeks, study length 104 weeks
  carcinogen call: negative (inactive)
rat, strain Charles River CD (Sprague-Dawley), males, in drinking water, site: liver, lesion: neoplastic nodule, dosed 104 weeks, study length 104 weeks
  TD50: 84800 mg/kg/day (inactive)
rat, strain F344/DuCrj, males, in drinking water, site: forestomach, lesion: one or several types, types not named, dosed 51 weeks, study length 52 weeks
  carcinogen call: negative (inactive)
rat, strain F344/DuCrj, males, in drinking water, site: stomach, glandular, lesion: one or several types, types not named, dosed 51 weeks, study length 52 weeks
  carcinogen call: negative (inactive)
rat, strain Slc-Wistar, males, in drinking water, site: liver, lesion: hepatocellular adenoma, dosed 120 weeks, study length 120 weeks
  TD50: 56100 mg/kg/day (inactive)
rat, strain Slc-Wistar, males, in drinking water, site: liver, lesion: hepatocellular carcinoma, dosed 120 weeks, study length 120 weeks
  TD50: 93900 mg/kg/day (inactive)
rat, strain Slc-Wistar, males, in drinking water, site: liver, lesion: several types, types named in the paper, dosed 120 weeks, study length 120 weeks
  TD50: 33800 mg/kg/day (inactive)
rat, strain Sprague-Dawley, both sexes, in drinking water, site: any site (literature study), lesion: malignant tumor, dosed 111 weeks, study length 111 weeks
  carcinogen call: negative (inactive)
rat, strain Sprague-Dawley, females, in drinking water, site: any site (literature study), lesion: malignant tumor, dosed 104 weeks, study length 120 weeks
  TD50: 61000 mg/kg/day
rat, strain Sprague-Dawley, females, in drinking water, site: any site (literature study), lesion: several types, types named in the paper, dosed 104 weeks, study length 120 weeks
  TD50: 5870 mg/kg/day
rat, strain Sprague-Dawley, females, in drinking water, site: liver, lesion: hepatocellular adenoma, dosed 104 weeks, study length 120 weeks
  TD50: 201000 mg/kg/day
rat, strain Sprague-Dawley, females, in drinking water, site: mammary gland, lesion: benign tumor, dosed 104 weeks, study length 120 weeks
  TD50: 6070 mg/kg/day
rat, strain Sprague-Dawley, females, in drinking water, site: mammary gland, lesion: fibroadenoma, dosed 104 weeks, study length 120 weeks
  TD50: 8790 mg/kg/day
rat, strain Sprague-Dawley, females, in drinking water, site: mammary gland, lesion: several types, types named in the paper, dosed 104 weeks, study length 120 weeks
  TD50: 4710 mg/kg/day
rat, strain Sprague-Dawley, females, in drinking water, site: pancreas, lesion: adenoma, dosed 104 weeks, study length 120 weeks
  TD50: 21900 mg/kg/day
rat, strain Sprague-Dawley, females, in drinking water, site: pituitary gland, lesion: neoplasm, NOS, dosed 104 weeks, study length 120 weeks
  TD50: 5480 mg/kg/day
rat, strain Sprague-Dawley, males, in drinking water, site: adrenal gland, lesion: one or several types, types not named, dosed 130 weeks, study length 130 weeks
  TD50: 13700 mg/kg/day
rat, strain Sprague-Dawley, males, in drinking water, site: any site (literature study), lesion: malignant tumor, dosed 104 weeks, study length 120 weeks
  TD50: 7180 mg/kg/day
rat, strain Sprague-Dawley, males, in drinking water, site: any site (literature study), lesion: several types, types named in the paper, dosed 104 weeks, study length 120 weeks
  TD50: 1210 mg/kg/day
rat, strain Sprague-Dawley, males, in drinking water, site: any site (literature study), lesion: several types, types named in the paper, dosed 130 weeks, study length 130 weeks
  TD50: 2130 mg/kg/day
rat, strain Sprague-Dawley, males, in drinking water, site: liver, lesion: hepatocellular carcinoma, dosed 104 weeks, study length 120 weeks
  TD50: 164000 mg/kg/day
rat, strain Sprague-Dawley, males, in drinking water, site: liver, lesion: hepatocellular carcinoma, dosed 130 weeks, study length 130 weeks
  TD50: 28400 mg/kg/day
rat, strain Sprague-Dawley, males, in drinking water, site: liver, lesion: hyperplastic nodule, dosed 130 weeks, study length 130 weeks
  TD50: 8260 mg/kg/day
rat, strain Sprague-Dawley, males, in drinking water, site: pancreas, lesion: carcinoma, dosed 104 weeks, study length 120 weeks
  TD50: 17500 mg/kg/day
rat, strain Sprague-Dawley, males, in drinking water, site: pancreas, lesion: one or several types, types not named, dosed 130 weeks, study length 130 weeks
  TD50: 13700 mg/kg/day
rat, strain Sprague-Dawley, males, in drinking water, site: pancreas, lesion: several types, types named in the paper, dosed 104 weeks, study length 120 weeks
  TD50: 33200 mg/kg/day
rat, strain Sprague-Dawley, males, in drinking water, site: pituitary gland, lesion: one or several types, types not named, dosed 130 weeks, study length 130 weeks
  TD50: 9110 mg/kg/day

## Cc1cc(N=Nc2c(O)ccc3ccccc23)c(S(=O)(=O)O)cc1Cl
mouse, strain B6C3F1, females, in feed, site: any site (literature study), lesion: several types, types named in the paper, dosed 103 weeks, study length 105 weeks
  TD50: 18200 mg/kg/day (inactive)
mouse, strain B6C3F1, females, in feed, site: liver, lesion: hepatocellular adenoma + hepatocellular carcinoma + neoplastic nodule, dosed 103 weeks, study length 105 weeks
  TD50: 9240 mg/kg/day
mouse, strain B6C3F1, females, in feed, site: lung, lesion: alveolar/bronchiolar adenoma + alveolar/bronchiolar carcinoma, dosed 103 weeks, study length 105 weeks
  TD50: 9200 mg/kg/day
mouse, strain B6C3F1, males, in feed, site: any site (literature study), lesion: several types, types named in the paper, dosed 103 weeks, study length 104 weeks
  TD50: 2120 mg/kg/day (inactive)
mouse, strain B6C3F1, males, in feed, site: liver, lesion: hepatocellular adenoma + hepatocellular carcinoma + neoplastic nodule, dosed 103 weeks, study length 104 weeks
  TD50: 781 mg/kg/day
mouse, strain B6C3F1, males, in feed, site: lung, lesion: alveolar/bronchiolar adenoma + alveolar/bronchiolar carcinoma, dosed 103 weeks, study length 104 weeks
  TD50: 5390 mg/kg/day
rat, strain Fischer 344, females, in feed, site: liver, lesion: hepatocellular adenoma + hepatocellular carcinoma + neoplastic nodule, dosed 103 weeks, study length 104 weeks
  TD50: 1140 mg/kg/day
rat, strain Fischer 344, females, in feed, site: liver, lesion: neoplastic nodule, dosed 103 weeks, study length 104 weeks
  TD50: 1140 mg/kg/day
rat, strain Fischer 344, males, in feed, site: any site (literature study), lesion: several types, types named in the paper, dosed 103 weeks, study length 104 weeks
  TD50: 331 mg/kg/day
rat, strain Fischer 344, males, in feed, site: liver + spleen, lesion: hepatocellular carcinoma + neoplastic nodule + fibrosarcoma + leiomyosarcoma + osteosarcoma + sarcoma, NOS, dosed 103 weeks, study length 104 weeks
  TD50: 104 mg/kg/day
rat, strain Fischer 344, males, in feed, site: liver, lesion: hepatocellular adenoma + hepatocellular carcinoma + neoplastic nodule, dosed 103 weeks, study length 104 weeks
  TD50: 357 mg/kg/day
rat, strain Fischer 344, males, in feed, site: liver, lesion: hepatocellular carcinoma + neoplastic nodule, dosed 103 weeks, study length 104 weeks
  TD50: 357 mg/kg/day
rat, strain Fischer 344, males, in feed, site: liver, lesion: neoplastic nodule, dosed 103 weeks, study length 104 weeks
  TD50: 265 mg/kg/day
rat, strain Fischer 344, males, in feed, site: spleen, lesion: fibrosarcoma + leiomyosarcoma + osteosarcoma + sarcoma, NOS, dosed 103 weeks, study length 104 weeks
  TD50: 146 mg/kg/day
rat, strain Fischer 344, males, in feed, site: spleen, lesion: fibrosarcoma, dosed 103 weeks, study length 104 weeks
  TD50: 211 mg/kg/day
rat, strain Fischer 344, males, in feed, site: spleen, lesion: osteosarcoma, dosed 103 weeks, study length 104 weeks
  TD50: 728 mg/kg/day
rat, strain Osborne-Mendel, females, in feed, site: pituitary gland, lesion: adenoma, dosed 108 weeks, study length 108 weeks
  carcinogen call: negative (inactive)
rat, strain Osborne-Mendel, males, in feed, site: all sites, lesion: fibrosarcoma, dosed 108 weeks, study length 108 weeks
  carcinogen call: negative (inactive)
rat, strain Osborne-Mendel, males, in feed, site: testis, lesion: interstitial-cell adenoma, dosed 108 weeks, study length 108 weeks
  TD50: 28600 mg/kg/day (inactive)

## COc1cc(/C=C/C(=O)O[C@H]2CC[C@]34C[C@]35CC[C@]3(C)[C@@H]([C@H](C)CCC=C(C)C)CC[C@@]3(C)[C@@H]5CC[C@H]4C2(C)C)ccc1O
mouse, strain B6C3F1, females, in feed, site: all sites, lesion: malignant lymphoma, dosed 78 weeks, study length 79 weeks
  TD50: 5970 mg/kg/day (inactive)
mouse, strain B6C3F1, females, in feed, site: liver, lesion: hepatocellular carcinoma, dosed 78 weeks, study length 79 weeks
  carcinogen call: negative (inactive)
mouse, strain B6C3F1, females, in feed, site: liver, lesion: neoplastic nodule, dosed 78 weeks, study length 79 weeks
  carcinogen call: negative (inactive)
mouse, strain B6C3F1, females, in feed, site: lung, lesion: alveolar/bronchiolar adenoma, dosed 78 weeks, study length 79 weeks
  carcinogen call: negative (inactive)
mouse, strain B6C3F1, males, in feed, site: all sites, lesion: malignant lymphoma, dosed 78 weeks, study length 79 weeks
  TD50: 15900 mg/kg/day (inactive)
mouse, strain B6C3F1, males, in feed, site: liver, lesion: hepatocellular carcinoma, dosed 78 weeks, study length 79 weeks
  carcinogen call: negative (inactive)
mouse, strain B6C3F1, males, in feed, site: liver, lesion: neoplastic nodule, dosed 78 weeks, study length 79 weeks
  carcinogen call: negative (inactive)
mouse, strain B6C3F1, males, in feed, site: lung, lesion: alveolar/bronchiolar adenocarcinoma, dosed 78 weeks, study length 79 weeks
  carcinogen call: negative (inactive)
mouse, strain B6C3F1, males, in feed, site: lung, lesion: alveolar/bronchiolar adenoma, dosed 78 weeks, study length 79 weeks
  carcinogen call: negative (inactive)
rat, strain F344/DuCrj, females, in feed, site: liver, lesion: neoplastic nodule, dosed 104 weeks, study length 105 weeks
  carcinogen call: negative (inactive)
rat, strain F344/DuCrj, males, in feed, site: liver, lesion: neoplastic nodule, dosed 104 weeks, study length 105 weeks
  TD50: 68500 mg/kg/day (inactive)

## Clc1ccc(Sc2cc(Cl)c(Cl)cc2Cl)cc1
rat, strain Wistar, females, in feed, site: liver, lesion: one or several types, types not named, dosed 104 weeks, study length 104 weeks
  carcinogen call: negative (inactive)
rat, strain Wistar, females, in feed, site: liver, lesion: one or several types, types not named, dosed 116 weeks, study length 116 weeks
  carcinogen call: negative (inactive)
rat, strain Wistar, males, in feed, site: liver, lesion: hepatoma, dosed 116 weeks, study length 116 weeks
  TD50: 4590 mg/kg/day (inactive)
rat, strain Wistar, males, in feed, site: liver, lesion: one or several types, types not named, dosed 104 weeks, study length 104 weeks
  carcinogen call: negative (inactive)
